The values below come from patent US5260426A, “Process for the preparation of pseudo primycin” (Chinoin Gyogyszer Es Vegyeszeti Termekek Gyara R.T., priority 1988, dated 1993).

One data set is described as follows: Solubility. Type of data set: physicochemical.
Another data set in a line: in vivo. The settings on record: mouse.

Like-named read-outs stand apart in the source and are kept apart here.

By LD50 is commonly meant the dose at which mortality reaches 50%.

As for `CCCCC1C(=O)OC(CCCNC(=N)N)C(C)C(O)C(C)C=C(C)CCCCC(O)CC(O)CC(O)CC(O)CC(O)C(OC2OC(CO)C(O)C2O)C=C(C)C(O)CCCC(O)CCCC(O)CCC(C)C1O` (stereo not shown) [Pseudo-primycin-A1-acetate], the solubility in ethanol in “Solubility” (ethanol) is 5 g/10 ml. This compound yielded a solubility in methanol in “Solubility” (methanol) of 10 g/10 ml. Also, in the data set “Solubility” (water), the solubility in water was 5 g/10 ml. Further, the LD50 in the data set “in vivo” (iv, female mice, read-out: LD50 values i.v. female) worked out at 18.8 mg/kg; in the data set “in vivo” (iv, male mice, read-out: LD50 values i.v. male) it was 17.7 mg/kg; in the data set “in vivo” (po, female mice, read-out: LD50 values p.o. female) it was 1580 mg/kg; in the data set “in vivo” (po, male mice, read-out: LD50 values p.o. male) it was 1720 mg/kg.
